# From US11618883B2, “Method for producing retinal pigment epithelial cells” (SUMITOMO PHARMA CO., LTD., priority 2017, dated 2023)
# Legend:
# [1] = test system: human iPS cells (QHJI01 line); assay: Production of RPE cells from iPS cells with a ROCK inhibitor or caspase inhibitor in the second step; visual observation of brown-black cell population; type: cell-based
# [2] = test system: human iPS cells (201B7, 1231A3, Ff-I01, QHJI01 lines); assay: Production of RPE cells including MEK inhibitor or FGF receptor inhibitor treatment step (first step); observation of brown-black cell population; type: cell-based; settings: for concentrations at which emergence of a brown-black cell population could be confirmed over a wide area: first step 6 days, QHJI01 line, day 36 and day 49 of culture; for emergence of RPE cells showing typical characteristics of RPE cell: 38 to 47 days of culture
# Excerpt: In one embodiment, to study the effect of the FGF receptor inhibitor in a medium free of a factor for maintaining undifferentiated state (bFGF), STEMSURE™ hPSC Medium Δ (Wako Pure Chemical Industries, Ltd.) (hereinafter STEMSURE™ hPSC Medium Δ w/o bFGF) not added with bFGF was used.
# 2014 Jan. 8; 4: 3594”. The medium used was STEMFIT™ AK03N medium (Ajinomoto Co., Inc.) (hereinafter AK03N medium).
# [3] = test system: human iPS cells (1231A3 line); assay: Production of RPE cells from iPS cells with a ROCK inhibitor in the second step; visual observation of brown-black cell population; type: cell-based; settings: for concentration at which emergence of a brown-black cell population could be visually confirmed: second step
# Experimental: 2014 Jan. 8; 4: 3594”. The medium used was […] A[…] medium (Ajinomoto Co., Inc.) (hereinafter AK03 medium). […] On the next day of seeding, FGF receptor inhibitor PD173074 (SIGMA) (final concentration 100 nM) was added to the A[…] medium (start of the first step), the medium was exchanged with A[…] medium added with an FGF receptor inhibitor every other day, and the cells were exposed to the FGF receptor inhibitor for 6 days in total (completion of the first step). […] On the first day of culture, A[…] (final concentration 10 μM) or A[…] medium without addition of Y-27632 as a comparison target was used. […] 2014 Jan. 8; 4: 3594”. The medium used was […] A[…] medium (Ajinomoto Co., Inc.) (hereinafter A[…] medium). […] On the next day of seeding, FGF receptor inhibitor PD173074 (SIGMA) (final concentration 100 nM) or MEK inhibitor PD0325901 (SIGMA) (final concentration 1 μM) was added to the A[…] medium (start of the first step), the medium was exchanged with A[…] medium added with an FGF receptor inhibitor or MEK inhibitor every other day, and the cells were exposed to FGF receptor inhibitor or MEK inhibitor for 6 days in total (completion of the first step). […] In the case of 1231A3 line, on the first day of culture, A[…] to a final concentration of 1 μM, 3 μM, 10 μM, 30 μM or 100 μM or, as a comparison target, A[…] medium without addition of Y-27632 was used. […] 2014 Jan. 8; 4: 3594”. The medium used was […] A[…] medium (Ajinomoto Co., Inc.) (hereinafter A[…] medium). […] On the next day of seeding, FGF receptor inhibitor PD173074 (SIGMA) (final concentration 100 nM) was added to the A[…] medium (start of the first step), the medium was exchanged every other day using A[…] medium added with FGF receptor inhibitor, and the cells were exposed to FGF receptor inhibitor for 6 days in total (completion of the first step). […] In the case of 1231A3 line, on the first day of culture, A[…] medium added with ROCK inhibitor Fasudil (Wako Pure Chemical Industries, Ltd.) to a final concentration of 10 μM, 30 μM or 100 μM or, as a comparison target, A[…] medium without addition of Fasudil was used.
# [4] = test system: human iPS cells (QHJI01 line); assay: Differentiation induction effect of Nodal and/or Wnt signal transduction pathway inhibitor in the second step; type: cell-based; settings: for emergence of cells showing typical characteristics of RPE cell: second step days 1-12 with 10 μM Y-27632 plus 5 μM SB-431542 and/or 3 μM CKI-7, first step 1 μM PD0325901, day 43
# Experimental: Production of retinal pigment epithelial (RPE) cells including an MEK inhibitor treatment step was performed as follows. iPS cells under culture for maintaining undifferentiated state were treated with 0.5×TRYPLE™ Select cell dissociation solution (mixture of equal amounts of TRYPLE™ Select cell dissociation solution (Life Technologies) and 0.5 mM EDTA/PBS(−)), dissociated using a cell scraper, dispersed to single cells by pipetting, seeded in a 6-well culture plate coated with IMATRIX™-511 laminin 511 E8 fragment (Nippi) (0.5 μg/cm^2) at 2.0×10^4 cells per 1 well and cultured in a ROCK inhibitor [10 μM Y-27632 (Wako Pure Chemical Industries, Ltd.)]-containing AK03N medium under 37° C., 5% CO2 conditions. On the next day of seeding, PD0325901 (SIGMA) (final concentration 1 μM) as MEK inhibitor was added to the AK03N medium (start of the first step) and the cells were exposed thereto for 6 days (completion of the first step). Thereafter, the cells were treated with 0.5×TRYPLE™ Select cell dissociation solution, dissociated using a cell scraper, dispersed to single cells by pipetting, seeded in a 12-well culture plate coated with IMATRIX™-511 laminin 511 E8 fragment (0.5 μg/cm^2) at 0.8×10^5 cells per 1 well and cultured under 37° C., 5% CO2 conditions (start of the second step). In the second step, the following 3 kinds of media were used. […]
# [5] = test system: RPE65, BEST1, CRALBP; assay: RT-PCR of retinal pigment epithelial cell markers after MEK inhibitor or FGF receptor inhibitor treatment step; type: cell-based, human; settings: first step 6 days (1 μM PD0325901 or 100 nM PD173074); 1231A3 line; day 43; bands very thin when untreated
# Experimental: 2014 Jan. 8; 4: 3594”. The medium used was […] A[…] medium (Ajinomoto Co., Inc.) (hereinafter A[…] medium). […] After observation on day 43 of culture, the cells were collected, RNA was extracted and RT-PCR was performed. RNEASYTM Micro Kit (QIAGEN) was used for RNA extraction, Oligo(dT)12-18Primer (Invitrogen) and SUPERSCRIPTTM III Reverse Transcriptase (Invitrogen) were used for reverse transcription reaction, and BLEND TAQTM-Plus-(TOYOBO) was used for PCR. The primer sequences of RPE65, BEST1, CRLBP, GAPDH are as described below. […] NO: 1), […] NO: 2), […] NO: 3), […] NO: 4), CRALBP-[…] NO: 5), CRALBP-[…] NO: 6), […] NO: 7), […] NO: 8). The number of cycles of the PCR reaction was 30 cycles for RPE65, BEST1, GAPDH, and 35 cycles for CRALBP. PCR products were detected as a single band by agarose gel electrophoresis at near 369 bp for RPE65, near 261 bp for BEST1, near 341 bp for CRALBP, and near 452 bp for GAPDH. As a positive control, primary human RPE (hRPE) was used and, as a negative control, iPS cells (undifferentiated iPSC) cultured under conditions for maintaining undifferentiated state were used.
# [6] = first step 6 days: 1 μM PD0325901, 1.5, 3, 6 μM PD184352, 5, 10 μM U0126, 0.3 μM TAK-733, 0.3 μM AZD-8330, QHJI01 and 1231A3 lines, day 49 and day 50
# [7] = first step 6 days (1 μM PD0325901 or 100 nM PD173074), 201B7 and 1231A3 lines
# [8] = first step 6 days (1 μM PD0325901 or 100 nM PD173074), 1231A3 line, day 43 of culture
# [9] = first step 6 days (1 μM PD0325901 or 100 nM PD173074), Ff-I01 and QHJI01 lines, day 43 of culture
# [10] = first step 6 days: 100 nM PD173074, 5, 10, 20 μM SU5402, QHJI01 and 1231A3 lines, day 49 of culture
compound,measurement,setting,value
"COC(=O)C[C@H](NC(=O)[C@H](C)NC(=O)[C@@H](NC(=O)OCc1ccccc1)C(C)C)C(=O)CF (racemic) [Z-VAD-FMK, benzyloxycarbonyl-Val-Ala-DL-Asp(OMe)-fluoromethylketone]",emergence of a brown-black cell population,"[1]; 20 μM in second step, 2.0×10^6 cells per well, first step MEK inhibitor, day 65 or 67 of culture",could be visually confirmed
"Cc1cc(C(=O)NOCCO)c(Nc2ccc(I)cc2F)n(C)c1=O [AZD-8330, 2-(2-fluoro-4-iodophenylamino)-N-(2-hydroxyethoxy)-1,5-dimethyl-6-oxo-1,6-dihydropyridine-3-carboxamide]",emergence of a brown-black cell population,[2]; [6],could be confirmed over a wide area
"O=S(=O)(c1cccc2cnccc12)N1CCCNCC1 [Fasudil, 1-(5-oquinolinesulfonyl)homopiperazine]",concentration at which emergence of a brown-black cell population could be visually confirmed,"[3]; tested 10, 30, 100 μM, 2.0×10^6 cells per well, first step FGF receptor inhibitor, day 41 of culture",not less than 10 μM
same,emergence of a brown-black cell population,"[1]; 10 μM in second step, 1.0×10^6 cells per well, first step FGF receptor inhibitor, day 48 of culture",could be visually confirmed
"NC(=O)c1ccc(-c2nc(-c3ccc4c(c3)OCO4)c(-c3ccccn3)[nH]2)cc1 [NODALi, 4-[4-(1,3-Benzodioxol-5-yl)-5-(pyridin-2-yl)-1H-imidazol-2-yl]benzamide]",emergence of cells showing typical characteristics of RPE cell,[4],same level
"CCN(CC)CCCCNc1ncc2cc(-c3cc(OC)cc(OC)c3)c(NC(=O)NC(C)(C)C)nc2n1 [PD173074, N-[2-[[4-(Diethylamino)butyl]amino]-6-(3,5-dimethoxyphenyl)pyrido[2,3-d]pyrimidin-7-yl]-N′-(1,1-dimethylethyl)urea]",emergence of a brown-black cell population,"[2]; PD173074 100 nM, 6 days first step, AK03, ESSENTIAL 8 or STEMSURE hPSC Medium Δ w/o bFGF, 201B7 and/or 1231A3 line, 38 to 42 days of culture",could be confirmed over a wide area
same,concentrations at which emergence of a brown-black cell population could be confirmed over a wide area,"[2]; PD173074, all concentrations studied",25 to 400 nM
same,emergence of RPE cells showing typical characteristics of RPE cell,[2]; [7],could be confirmed
same,emergence of a brown-black cell population,[2]; [8],could be confirmed over a wide area
same,emergence of a brown-black cell population,[2]; [9],could be confirmed over a wide area
same,emergence of a brown-black cell population,[2]; [10],could be confirmed over a wide area
same,"RT-PCR bands of retinal pigment epithelial cell markers RPE65, BEST1, CRALBP",[5],clear bands could be confirmed
"O=C(NOCC1CC1)c1ccc(F)c(F)c1Nc1ccc(I)cc1Cl [PD184352, (2-[(2-Chloro-4-iodophenyl)amino]-N-cyclopropylmethoxy)-3,4-difluorobenzamide]",emergence of a brown-black cell population,[2]; [6],could be confirmed over a wide area
"O=C(NOC[C@H](O)CO)c1ccc(F)c(F)c1Nc1ccc(I)cc1F [PD0325901, N-[(2R)-2,3-Dihydroxypropoxy]-3,4-difluoro-2-[(2-fluoro-4-iodophenyl)amino]-benzamide]",emergence of a brown-black cell population,"[2]; 1 μM PD0325901, exposure for 3 days and 6 days, 1231A3 line, day 37 of culture",could be confirmed over a wide area
same,emergence of colored cell population,"[2]; 1 μM PD0325901, exposure for 13 days, 1231A3 line, day 37 of culture",sufficient emergence of colored cell population was also confirmed
same,cells showing typical characteristics of RPE cell,"[2]; 1 μM PD0325901, exposure for one day, 1231A3 line, day 37 of culture",almost no cell
same,emergence of a brown-black cell population,"[2]; PD0325901 1 μM (AK03 medium) or 0.03 μM (ESSENTIAL8 medium), 6 days first step, 201B7 and 1231A3 lines, 38 to 42 days of culture",could be confirmed over a wide area
same,concentrations at which emergence of a brown-black cell population could be confirmed over a wide area,"[2]; PD0325901, all concentrations studied",250 to 4000 nM
same,emergence of RPE cells showing typical characteristics of RPE cell,[2]; [7],could be confirmed
same,emergence of a brown-black cell population,[2]; [8],could be confirmed over a wide area
same,emergence of a brown-black cell population,[2]; [9],could be confirmed over a wide area
same,emergence of a brown-black cell population,[2]; [6],could be confirmed over a wide area
same,"RT-PCR bands of retinal pigment epithelial cell markers RPE65, BEST1, CRALBP",[5],clear bands could be confirmed
"Cc1c[nH]c(C=C2C(=O)Nc3ccccc32)c1CCC(=O)O [SU5402, 2-[(1,2-Dihydro-2-oxo-3H-indol-3-ylidene)methyl]-4-methyl-1H-pyrrole-3-propanoic acid]",emergence of a brown-black cell population,[2]; [10],could be confirmed over a wide area
"N#CC(=C(N)Sc1ccccc1N)C(C#N)=C(N)Sc1ccccc1N [U0126, 1,4-Diamino-2,3-dicyano-1,4-bis[2-aminophenylthio]butadiene]",emergence of a brown-black cell population,[2]; [6],could be confirmed over a wide area
"NCCNS(=O)(=O)c1ccc(Cl)c2ccncc12 [WNTi, N-(2-Aminoethyl) chloroisoquinoline-8-sulfonamide]",brown-black area in the whole well,"[4]; second step days 1-12, single agent 3 μM CKI-7 with 10 μM Y-27632, day 43",decreased
same,emergence of cells showing typical characteristics of RPE cell,[4],sufficient number of cells
"C[C@@H](N)[C@H]1CC[C@H](C(=O)Nc2ccncc2)CC1 [Y-27632, trans-4-[(1R)-1-aminoethyl]-N-4-pyridinylcyclohexanecarboxamide]",emergence of a brown-black cell population,"[3]; 10 μM in second step (days 1-13) after FGF receptor inhibitor (100 nM PD173074) first step, day 42 of culture",could be visually confirmed
same,concentration at which emergence of a brown-black cell population could be visually confirmed,"[3]; tested 1-100 μM, first step FGF receptor inhibitor or MEK inhibitor, day 48 of culture",not less than 10 μM
same,exposure period at which emergence of a brown-black cell population could be visually confirmed,"[1]; 10 μM in second step, tested 3-20 days, first step MEK inhibitor, day 49 of culture",not less than 6 days
same,emergence of a brown-black cell population,"[1]; 10 μM, 3 days of exposure in second step, first step MEK inhibitor, day 49 of culture",confirmed only slightly
same,emergence of a brown-black cell population,"[1]; low concentration (1 μM) in second step, 2.0×10^6 cells per well (10 times general number), first step FGF receptor inhibitor or MEK inhibitor, day 50",could be visually confirmed
same,concentration at which emergence of a brown-black cell population could be visually confirmed,"[1]; second step, tested 1-100 μM, first step FGF receptor inhibitor or MEK inhibitor, day 50 of culture",not less than 3 μM
